{
  "source": "patent US12377153B2",
  "about": "“Poly(beta-thioester) polymers and polymeric nanoparticles” (MASSACHUSETTS INSTITUTE OF TECHNOLOGY, priority 2019, dated 2025)",
  "tested_on": "dendritic cells in the draining lymph nodes",
  "assay": "Dendritic cell phenotype in draining lymph nodes after subcutaneous vaccination",
  "type": "in vivo, C57BL/6J mice",
  "details": "antigen alone as compared to vehicle-treated animals",
  "protocol": "The activity of the polymeric adjuvant B18 was assessed in C57BL/6J mice. Vaccines were prepared by admixing a model peptide antigen (SIINFEKL) with B18 nanoparticles and injected subcutaneously into mice. Following three injections placed three days apart, animals were sacrificed and dendritic cell phenotype in the draining lymph nodes were analyzed using flow cytometry.",
  "data": [
    {"sequence": "SIINFEKL", "values": [
      {"measurement": "dendritic cell activation", "value": "no appreciable dendritic cell activation"}
    ]}
  ]
}
